From patent US20060058394A1, “Medicine of post-traumatic stress disorder” (KYOTO UNIVERSITY, priority 2001, published 2006) come the findings set out here.

In one assay the test system is wild mice. Description: Social behaviors on cohabiting with young male mice (smelling action). The format is in vivo. The following applies: wild mice cohabiting with young male mice (5 weeks of age). An excerpt: (§1) The action admitted when wild mice (WT) or EP1 receptor-deficient mice cohabit with young male mice (5 weeks of ages) was observed.
The next assay deals with C57BL/6 mice. Description: Decrease of spontaneous locomotor activity by LPS induction. The format is in vivo. The following applies: wild mice; LPS 0.1 mg/kg i.p.; 0.1% (W/W) EP1 antagonist mixed with food; 12 hours, 8 p.m. to 8 a.m.; FIG. 4. As to the method:
0.1 mg/kg of LPS is intraperitoneally administered to C57BL/6 mice, they are put in acrylic cage (30×45×35 cm (height), and the momentum for 12 hours from the 8 p.m. to 8 a.m. of next morning was measured with mouse action meter, Infrared photo beam counter (Neuroscience Co., Ltd., Tokyo, Japan). 0.1% (W/W) of EP1 antagonist (the same as experiment example 1 was used) mixed with food was given. Similarly, the difference of the momentum by administering LPS were compared by using wild mice (WT) and EP1 receptor-deficient mice.

Another assay deals with WT mice. Briefly: Action of jumping off platform. The format is in vivo. The following applies: 10 mg/kg i.p., about 20 cm high platform, 7 minutes, FIG. 5. As to the method:
Wild mice, EP1 or EP3 receptor-deficient mice, or WT mice to which 10 mg/kg of EP1 antagonist (the same as experiment example 1 was used.) was intraperitoneally administered put on about 20 cm high platform (beaker), and the presence of the action of jumping off was observed.

In another assay the test system is ACTH in plasma. Description: ACTH production by LPS induction. The format is in vivo, C57BL/6 strain mice. The following applies: wild type mice; LPS 0.1 mg/kg i.p.; blood 60 minutes after LPS; EP1 antagonist given 1 hour before LPS; FIG. 2. As to the method:
0.1 mg/kg of LPS (lipopolysaccharide) as an infectious stress was intraperitoneally administered to C57BL/6 strain mice. The blood be gathered at 60 minutes later after administering LPS, the induced stress reaction, that is, activation of hypothalamus-pituitary-adrenal system were measured as a marker on ACTH in plasma. ACTH was measured with ACTH IRMA kit (Mitsubishi Yuka Medical Co., Tokyo, Japan). (4-[2-(N-isobutyl-2-furanylsulfonylamino)-5-trifluoromethylphenoxymethyl]cinna mic acid (the compound which had been described to example 18(94) in WO98/27053, was used.), which is EP1 antagonist, was administered 1 hour ago before administering LPS.

The subject of assay [1] is EP1 receptor-deficient mice. Description: Aggressive behavior after administering haloperidol. The format is in vivo. The following applies: EP1 receptor-deficient mice given haloperidol. As to the method: After two male mice (wild mice (WT) or EP1 receptor-deficient mice) were put in 3 L of glass container and stimulated by the electroshock (1 H, 200 m seconds, 0.3 mA for 3 minutes), these aggressive behaviors were recorded to the video. The time up to the first aggressive behavior (latency; second) and the attack frequency, and total attack time was compared.
as §1
As a result of experiment similar to experiment example 6 by administering haloperidol to EP1 receptor-deficient mice, it was confirmed that the time up to the first attack elongates, the attack frequency decreases, and the total of attack time shortens.

Assay [2] deals with EP1 receptor-deficient mice. Description: Spontaneous locomotor activity after administering haloperidol. The format is in vivo. The note with it: EP1 receptor-deficient mice given haloperidol. The protocol: Furthermore, it was also confirmed that the spontaneous locomotor activity decreased when haloperidol was administered to EP1 receptor-deficient mice.

Regarding `CC(C)CN(c1ccc(C(F)(F)F)cc1OCc1ccc(C=CC(=O)O)cc1)S(=O)(=O)c1ccco1` [EP1 antagonist, 4-[2-(N-isobutyl-2-furanylsulfonylamino)-5-trifluoromethylphenoxymethyl]cinna mic acid], in the assay on wild mice, the “time of the smelling action” value is listed as “shortened”. Moreover, in the assay with C57BL/6 mice, the “decrease of the spontaneous locomotor activity induced by LPS” value is on record as “has decreased”. For the same compound, the “mice jumped off the platform” value in the assay on WT mice is on record as “All mice in the EP1 antagonist administrated group jumped off the platform 7 minutes later”. In addition, in the assay on ACTH in plasma, the “amount of ACTH production by LPS-induction” value is given as “significantly decreases”.

With `O=C(CCCN1CCC(O)(c2ccc(Cl)cc2)CC1)c1ccc(F)cc1` [haloperidol], in assay [1], the attack frequency entry is given as “decreases”, the “time up to the first attack” value is on record as “elongates” and the “total of attack time” value is “shortens”. Also, the spontaneous locomotor activity entry in assay [2] is reported as “decreased”.
